Assay [1] concerns the target T1, cMET enzyme (amino acids 1023-1360) (Homo sapiens, UniProt P08581).
T1 construct: The cMET enzyme (amino acids 1023-1360) nominally at 24 μM was held at −80° C. until use; His tag (N, cleaved yes); made in house; host or cells: Sf9 cells
Briefly: Determination of inhibition of cMET (capillary electrophoresis, phosphorylated peptide product). Conditions: 1.2 nM cMET, 50 μM ATP, 2 μM FL-2 peptide, 2 hours room temperature. Type of assay: biochemical. As to the method: The inhibitory property of a compound relative to cMET catalysis was determined by use of capillary electrophoresis with fluorescence quantification of a phosphorylated peptide product for cMET. The cMET enzyme (amino acids 1023-1360) nominally at 24 μM was held at −80° C. until use, in a buffer containing 25 mM Tris-HCl pH 8.5, 150 mM NaCl, 3 mM DTT and 10% glycerol. […] Following purification, the tag was removed and enzyme concentrated. […] To activate the enzyme fully, frozen cMET was thawed quickly and activated with the addition of assay buffer (50 mM HEPES pH 7.5, 10 mM NaCl, 10 mM MgCl2, 0.01% Brij® 35), 1.25 mM ATP, 5 mM MgCl2 and 5 mM DTT at a cMET concentration of 2.4 μM followed by a 30 minute incubation at room temperature. […] Next, cMET enzyme (1.2 nM final) was added and the system incubated at room temperature for 20 minutes. Catalysis was initiated by the addition of ATP (50 μM final). Assays were incubated at room temperature for 2 hours then quenched by the addition of EDTA. Phosphorylated peptide product was quantified by monitoring fluorescence during capillary electrophoresis with Caliper LifeSciences LabChip 3000 under the following settings: base pressure=−0.1 psi, screen pressure=−1.2 psi, downstream voltage=−500 V, upstream voltage=−2300 V, chip type=TC372. The elution buffer was identical to the assay buffer except for the absence of DTT, FL-2 and ATP and the addition of 0.1% coating reagent (Caliper). […] Peak height was quantified and used to determine enzyme velocities.
IC50 values were calculated by non-linear least squares curve fitting of the standard IC50 equation to background-corrected cMET velocity versus compound concentration.

The subject of the next assay is MKN45. Briefly: Inhibition of cell viability (MTS), MKN45. Conditions: Homo sapiens, 96 hours incubation. Type of assay: cell-based. As to the method:
(§1) Cells were maintained at 37° C. in a humidified atmosphere containing 5%-8% CO2 following the instructions of the supplier (American Type Culture Collection (Rockville, Md.)). Inhibition of cell viability was determined for a panel of tumor cell lines (MKN45, EBC1 and A549), using the soluble tetrazolium salt, MTS (Promega, Madison, Wis.). Cells were seeded at 2,000-7,500 cells/well in 96-well tissue culture plates and were allowed to attach for approximately 24 hours prior to addition of compounds or DMSO vehicle. […] Cells were treated in duplicate with test compounds. Compounds were serially diluted (1:2.5) from column 1 to 11 and column 12 contained DMSO vehicle. Compounds were diluted into cell growth medium then compound solution was added to cells. Equal amounts of DMSO were added to cells (final concentration is 0.5%). After background correction and normalization against DMSO-treated cells, EC50 values were calculated using non-linear curve-fitting of the cell viability as a function of compound concentration. The MKN45 and EBC1 cell lines contain high levels of phospho-Met and are dependent on cMET for proliferation, whereas the A549 line is used as negative control.
(§2) EC50 values may be calculated by non-linear curve fitting of the compound concentrations and fluorescence intensities to the standard EC50 equation.

For a further assay, the system named is EBC1. Briefly: Inhibition of cell viability (MTS), EBC1. The assay is classed as cell-based. Conditions: Homo sapiens, 96 hours incubation. The protocol: as §1, §2
Another assay concerns A549. Briefly: Inhibition of cell viability (MTS), A549 (negative control line). Type of assay: cell-based. Conditions: Homo sapiens, A549 cells (negative control), 96 hours incubation. The protocol: as §1, §2

T1 sequence (P08581 1023-1360): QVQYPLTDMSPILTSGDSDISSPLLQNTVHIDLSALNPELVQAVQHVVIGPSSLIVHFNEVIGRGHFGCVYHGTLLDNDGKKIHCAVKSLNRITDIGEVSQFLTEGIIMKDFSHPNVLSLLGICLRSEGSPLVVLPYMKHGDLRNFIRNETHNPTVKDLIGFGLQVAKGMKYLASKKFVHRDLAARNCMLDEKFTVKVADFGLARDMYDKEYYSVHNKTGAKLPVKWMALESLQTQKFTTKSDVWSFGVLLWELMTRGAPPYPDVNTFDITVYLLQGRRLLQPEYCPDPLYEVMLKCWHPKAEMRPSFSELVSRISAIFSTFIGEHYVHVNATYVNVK

As to `COCCn1cc(-c2ccc3nnc(Sc4ccc5nc(NC(=O)C6CC6)cn5n4)n3c2)cn1` [Compound 31, N-(6-(6-(1-(2-methoxyethyl)-1H-pyrazol-4-yl)-[1,2,4]triazolo[4,3-a]pyridin-3-ylthio)imidazo[1,2-b]pyridazin-2-yl)cyclopropanecarboxamide], the IC50 – broadly, the concentration needed to halve the response being measured – in assay [1] is 30 to 59 nM. In addition, the EC50 (commonly the concentration at which the effect is half-maximal) in the assay on MKN45 (MKN-45, 96 h, MKN45 cells) was less than 100 nM; with EBC1 (EBC-1, 96 h, EBC1 cells), less than 35 nM; in the assay with A549 (A549, 96 h), more than 50 µM.

As to `O=C(Nc1cn2nc(Sc3nnc4ccc(-c5cnn(CCO)c5)cn34)ccc2n1)C1CC1` [Compound 32], in assay [1], the IC50 was less than 30 nM. The EC50 is 100 to 249 nM in the assay on MKN45 (MKN-45, 96 h, MKN45 cells); 35 to 99 nM in the assay with EBC1 (EBC-1, 96 h, EBC1 cells); more than 50 µM in the assay with A549 (A549, 96 h).

In turn, `O=C(O)c1ccc2nnc(Sc3ccc4nc(NC(=O)C5CC5)cn4n3)n2c1` [Compound 33, 3-(2-(cyclopropanecarboxamido)imidazo[1,2-b]pyridazin-6-ylthio)-[1,2,4]triazolo[4,3-a]pyridine-6-carboxylic acid] showed an IC50 in assay [1] of more than 100 nM. Also, the EC50 in the assay on MKN45 (MKN-45, MKN45 cells) is more than 630 nM; in the assay on EBC1 (EBC-1, EBC1 cells), more than 200 nM; in the assay with A549, more than 50 µM.

In assay [1], `O=C(NC1CC1)c1ccc2nnc(Sc3ccc4nc(NC(=O)C5CC5)cn4n3)n2c1` [Compound 34, 3-(2-(cyclopropanecarboxamido)imidazo[1,2-b]pyridazin-6-ylthio)-N-cyclopropyl-[1,2,4]triazolo[4,3-a]pyridine-6-carboxamide] registered an IC50 of 60 to 100 nM. For the same compound, the half-maximal effective concentration (EC50) in the assay on MKN45 (MKN-45, 96 h, MKN45 cells) was more than 630 nM; in the assay on EBC1 (EBC-1, 96 h, EBC1 cells) it was more than 200 nM; in the assay on A549 (A549, 96 h) it was more than 50 µM.

As to `CC(C)CNC(=O)c1ccc2nnc(Sc3ccc4nc(NC(=O)C5CC5)cn4n3)n2c1` [Compound 35, 3-(2-(cyclopropanecarboxamido)imidazo[1,2-b]pyridazin-6-ylthio)-N-isobutyl-[1,2,4]triazolo[4,3-a]pyridine-6-carboxamide], the IC50 in assay [1] is more than 100 nM. Moreover, the EC50 with MKN45 (MKN-45, 96 h, MKN45 cells) was more than 630 nM; in the assay with EBC1 (EBC-1, 96 h, EBC1 cells), 100 to 199 nM; with A549 (A549, 96 h) it was more than 19.5 µM.

`O=C(Nc1cn2nc(Sc3nnc4ccc(-c5ccc(N6CCNCC6)cc5)cn34)ccc2n1)C1CC1` [Compound 36, N-(6-(6-(4-(piperazin-1-yl)phenyl)-[1,2,4]triazolo[4,3-a]pyridin-3-ylthio)imidazo[1,2-b]pyridazin-2-yl)cyclopropanecarboxamide] showed an IC50 in assay [1] of less than 30 nM. The EC50 is 250 to 630 nM in the assay with MKN45 (MKN-45, 96 h, MKN45 cells); 35 to 99 nM with EBC1 (EBC-1, 96 h, EBC1 cells); more than 50 µM in the assay with A549 (A549, 96 h).

Consider `O=C(Nc1cn2nc(Sc3nnc4ccc(C#CCO)cn34)ccc2n1)C1CC1` [Compound 37, N-(6-(6-(3-hydroxyprop-1-ynyl)-[1,2,4]triazolo[4,3-a]pyridin-3-ylthio)imidazo[1,2-b]pyridazin-2-yl)cyclopropanecarboxamide], for which the IC50 in assay [1] lay within 30 to 59 nM. Also, the EC50 with MKN45 (MKN-45, 96 h, MKN45 cells) was 250 to 630 nM; in the assay with EBC1 (EBC-1, 96 h, EBC1 cells) it was 100 to 199 nM; in the assay on A549 (A549, 96 h), more than 50 µM.

`O=C(Nc1cn2nc(Sc3nnc4ccc(-c5nn[nH]n5)cn34)ccc2n1)C1CC1` [Compound 38, N-(6-(6-(2H-tetrazol-5-yl)-[1,2,4]triazolo[4,3-a]pyridin-3-ylthio)imidazo[1,2-b]pyridazin-2-yl)cyclopropanecarboxamide] had a half-inhibitory concentration (IC50) in assay [1] of more than 100 nM. Besides, the EC50 in the assay on MKN45 (MKN-45, 96 h, MKN45 cells) is more than 630 nM; with EBC1 (EBC-1, 96 h, EBC1 cells), more than 200 nM; in the assay with A549 (A549, 96 h), more than 50 µM.

In assay [1], `COCc1nc(-c2ccc3nnc(Sc4ccc5nc(NC(=O)C6CC6)cn5n4)n3c2)no1` [Compound 39, N-(6-(6-(5-(methoxymethyl)-1,2,4-oxadiazol-3-yl)-[1,2,4]triazolo[4,3-a]pyridin-3-ylthio)imidazo[1,2-b]pyridazin-2-yl)cyclopropanecarboxamide] yielded an IC50 of 60 to 100 nM. Further, the EC50 with MKN45 (MKN-45, 96 h, MKN45 cells) was in the range of 100 to 249 nM; with EBC1 (EBC-1, 96 h, EBC1 cells) it was 35 to 99 nM; in the assay on A549 (A549, 96 h), 0.6 to 1.6 µM.

In assay [1], `CC(C)(O)c1ccc2nnc(Sc3ccc4nc(NC(=O)C5CC5)cn4n3)n2c1` [Compound 40, N-(6-(6-(2-hydroxypropan-2-yl)-[1,2,4]triazolo[4,3-a]pyridin-3-ylthio)imidazo[1,2-b]pyridazin-2-yl)cyclopropanecarboxamide] displayed an IC50 of more than 100 nM. For the same compound, the EC50 in the assay on MKN45 (MKN-45, MKN45 cells) was more than 630 nM; in the assay on EBC1 (EBC-1, EBC1 cells), more than 200 nM; with A549, more than 50 µM.

`O=C(Nc1cn2nc(Sc3nnc4ccc(C(F)(F)F)cn34)ccc2n1)C1CC1` [Compound 41, N-(6-(6-(trifluoromethyl)-[1,2,4]triazolo[4,3-a]pyridin-3-ylthio)imidazo[1,2-b]pyridazin-2-yl)cyclopropanecarboxamide]: in assay [1], the IC50 fell in the range of 60 to 100 nM. Moreover, the EC50 in the assay with MKN45 (MKN-45, 96 h, MKN45 cells) was 100 to 249 nM; with EBC1 (EBC-1, 96 h, EBC1 cells), 35 to 99 nM; with A549 (A549, 96 h), 8 to 25 µM.

Compound `Cc1ccc2nnc(Sc3ccc4nc(NC(=O)C5CC5)cn4n3)n2c1` [Compound 42, N-(6-(6-methyl-[1,2,4]triazolo[4,3-a]pyridin-3-ylthio)imidazo[1,2-b]pyridazin-2-yl)cyclopropanecarboxamide] came in with an IC50 in assay [1] of 60 to 100 nM. Also, the EC50 in the assay on MKN45 (MKN-45, 96 h, MKN45 cells) is 100 to 249 nM; with EBC1 (EBC-1, 96 h, EBC1 cells), 35 to 99 nM; in the assay on A549 (A549, 96 h), more than 50 µM.

For `O=C(Nc1cn2nc(Sc3nnc4ccc(-c5cccc(F)c5)cn34)ccc2n1)C1CC1` [Compound 44, N-(6-(6-(3-fluorophenyl)-[1,2,4]triazolo[4,3-a]pyridin-3-ylthio)imidazo[1,2-b]pyridazin-2-yl)cyclopropanecarboxamide], in assay [1], the IC50 was less than 30 nM. In addition, the EC50 in the assay with MKN45 (MKN-45, 96 h, MKN45 cells) is less than 100 nM; in the assay on EBC1 (EBC-1, 96 h, EBC1 cells), less than 35 nM; with A549 (A549, 96 h), 0.6 to 1.6 µM.

As to `O=C(Nc1cn2nc(C(F)(F)c3nnc4ccc(-c5cnoc5)cn34)ccc2n1)C1CC1` [Compound 46, N-(6-(difluoro(6-(isoxazol-4-yl)-[1,2,4]triazolo[4,3-a]pyridin-3-yl)methyl)imidazo[1,2-b]pyridazin-2-yl)cyclopropanecarboxamide], in assay [1], the IC50 was in the range of 30 to 59 nM. In addition, the EC50 is 60 to 100 nM with MKN45 (MKN-45, 96 h, MKN45 cells); 60 to 100 nM in the assay on EBC1 (EBC-1, 96 h, EBC1 cells); more than 50 µM in the assay on A549 (A549, 96 h).

Consider `O=C(Nc1cn2nc(C(F)(F)c3nnc4ccc(-c5cnn(CCO)c5)cn34)ccc2n1)C1CC1` [Compound 47, N-(6-(difluoro(6-(1-(2-hydroxyethyl)-1H-pyrazol-4-yl)-[1,2,4]triazolo[4,3-a]pyridin-3-yl)methyl)imidazo[1,2-b]pyridazin-2-yl)cyclopropanecarboxamide], for which the concentration for half-maximal inhibition (IC50) in assay [1] is less than 30 nM. Moreover, the EC50 is less than 30 nM in the assay on MKN45 (MKN-45, 96 h, MKN45 cells); less than 30 nM in the assay with EBC1 (EBC-1, 96 h, EBC1 cells); more than 50 µM in the assay with A549 (A549, 96 h).

As to `C[C@@H](c1ccc2nc(NC(=O)C3CC3)cn2n1)c1nnc2ccc(-c3cnn(C)c3)cn12` [Compound 50, (S)—N-(6-(1-(6-(1-methyl-1H-pyrazol-4-yl)-[1,2,4]triazolo[4,3-a]pyridin-3-yl)ethyl)imidazo[1,2-b]pyridazin-2-yl)cyclopropanecarboxamide], the IC50 in assay [1] is less than 30 nM. In addition, the EC50 is 30 to 59 nM with MKN45 (MKN-45, 96 h, MKN45 cells); less than 30 nM in the assay on EBC1 (EBC-1, 96 h, EBC1 cells); more than 50 µM with A549 (A549, 96 h).

On to `C[C@H](c1ccc2nc(NC(=O)C3CC3)cn2n1)c1nnc2ccc(-c3cnn(C)c3)cn12` [Compound 51, (R)—N-(6-(1-(6-(1-methyl-1H-pyrazol-4-yl)-[1,2,4]triazolo[4,3-a]pyridin-3-yl)ethyl)imidazo[1,2-b]pyridazin-2-yl)cyclopropanecarboxamide], for which the IC50 in assay [1] was more than 100 nM. The EC50 was more than 100 nM with MKN45 (MKN-45, 96 h, MKN45 cells); more than 100 nM with EBC1 (EBC-1, 96 h, EBC1 cells); more than 50 µM in the assay on A549 (A549, 96 h).
